Values joined by “and” are separate entries in the source; they are usually repeats but may differ in a detail not shown here. Identical values can stand only once.
What was measured:
TNBC BT-549 cells = assay: Cell survival / cell inhibition (MTT cell cytotoxicity assay) after 24 h treatment with photosensitizer and/or chemotherapeutic agent, dark or light-irradiated; format: cell-based, human
Experimental: Human mammary epithelial carcinoma cell lines purchased from the American Type Culture Collection BT-549 (ATCC HTB-122) were cultured according to ATCC protocol. BT-549 cells were grown in RPMI 1640 containing 0.023 IU/mL insulin and supplemented with 10% fetal bovine serum (FBS). Cells were grown to 80-90% confluence in 75-cm^2 culture flasks (Corning) for 4-5 days in a humidified incubator (Fisher Scientific Isotemp) with 5% CO2 at 37° C. During the incubation period, growth media was changed once with fresh pre-warmed media (pH 7.2). To harvest the cells, old growth media was aspirated out, and 3 mL 0.25% trypsin solution (Thermo Sci Hyclone) were added. The cells were incubated for 5 minutes, and the cell pellet after centrifugation was resuspended in 3 mL media, broken up gently, then 1 mL of suspended cells was transferred into a new T75 cell culture flask containing pre-warmed media (20 mL) for further culturing.
(§1) Cells were grown to confluence in a 96-well plate (9×10^3 cells/well) and co-treated for 24 hours with synthesized photosensitizers (PSs) and chemotherapeutic agents of varying concentrations ranging from 5 nM to 50 μM) in growth media from a stock solution of 10 mM in DMSO (dimethyl sulfoxide, Fisher). After 24-hour treatment, old growth media containing the PSs or compounds were aspirated out and replaced with fresh media. Plates were then positioned below a non-coherent LumaCare LC-122 650 nm light source for 1 minute at an energy fluence rate of 0.96 J/cm^2 and a power of 16 mW/cm^2 (measured using a Newport optical power meter Model 840). Unirradiated cells served as control samples. The following day, cells were washed with pre-warmed PBS, and 11MTT (3-[4,5-dimethyl-thiazol-2-yl]-2.5-diphenyltetrazolium bromide, Sigma, 0.3 mg/mL) in PBS was added to each well. Samples were allowed to incubate for additional 2 hours, after which dark blue crystals formed. DMSO was added to each well and plates were shaken at room temperature for 1 hour to dissolve the purplish-blue formazan crystals. Absorbance values at 570 nm were measured on a microplate reader (BioRad 550). Cell survival was calculated based on the absorbance of the untreated cells alone (as control) and were directly proportional to the number of viable cells in culture. Results were reported as the mean±SD of triplicate measurements.
The unmetallated PS and the indium complexes were used.
Light dose corresponds to an energy fluence rate of 0.96 J/cm^2 used.
Power of 16 mW/cm^2 used.
Cell inhibition in TNBC cells is based on the cell survival (MTT) assay of the binary therapy, blending the effect of PDT and chemotherapeutic agents. […] MePheo serves as a control compound. TNBC cells were then exposed to light after binary treatment for 24 hours.

human TNBC BT-549 cells = assay: Fluorescence microscopy (Hoechst 33258) of cell morphology / cell death pathway; format: cell-based
Experimental: Grayscale images of cells stained with Hoechst 33258. Morphology of (A) untreated unirradiated cells, sham control; (B) illuminated cells; (C-E) cells treated with: PSs (InCLA, CBTN, and CPA) and paclitaxel in the dark; (F-H) PSs, followed by 1 minute light exposure; (I) paclitaxel unirradiated; (J-L) PSs and paclitaxel in the dark; (M-O) PSs co-treated with paclitaxel, then light-exposed; (P-Q) PSs co-treated with doxorubicin, then irradiated; (R) PSs and cisplatin, dark; (S-T) PSs and cisplatin, irradiated; (U) fluorouracil, dark; (V) InCLA with fluorouracil in the dark; (W) light-exposed and, (X-Y) PSs with methotrexate with light. Inserts indicate enlarged view. […] Light dose in 1 minute=0.96 J cm^−2; in 30 seconds=0.48 J cm^−2. Concentrations: PSs=50 nM; paclitaxel=50 nM; doxorubicin=500 nM; cisplatin=25 μM; fluororuracil=25 μM; and, methotrexate=500 nM.
Cells (1 mL aliquots) obtained from a diluted cell suspension were seeded into each well (1.7 cm^2, 8×10^3 cells/well) of a 4-well culture slide (BD Biosciences) and grown to confluence in 5% CO2 at 37° C. for 3-4 days for attachment to the substratum. After aspirating the old growth media, 1 mL of the photosensitizer and chemotherapeutic agents (with appropriate concentrations) in fresh pre-warmed media at 37° C. was added to each well. After compound treatment for 24 hours, cells were washed twice with 1 mL fresh growth media, and then irradiated with light using LumaCare LC-122 as described above. Cells were stained in the dark with Hoechst 33258 (Molecular Probes) in pre-warmed media for 10 minutes at 37° C., washed twice with filtered PBS, then fixed with filtered paraformaldehyde for 15 minutes in the incubator. After thorough liquid aspiration, the wells were removed and allowed to air dry in the dark for 1 hour. Slides were protected with coverslips, whose edges were sealed using clear fast-drying nail polish and allowed to dry at room temperature in the dark for 30 minutes. Images were recorded using fluorescence microscopy (DAPI for Hoechst 350-390 nm excitation and 460-490 nm emission filters) using an upright fluorescence microscope with Retiga imaging 2000R (Nikon Optiphot-2, 20× and 40×) and an image processing Nikon NIS-Elements V4.0 Qimaging software.
To determine the preferred cell death pathway for the binary chemophotodynamic therapy, tracking the hallmarks of apoptosis or necrosis was accomplished using a nuclear stain to monitor chromatin condensation and cellular contraction. TNBC cells are spindle-shaped and nearly round with intact cytoplasm, diffused chromatin, distinct cellular membrane, and large oval nuclei staining dark blue with the nuclear stain (FIG. 18A-B).

TNBC cells [1] = assay: Combination index (CI) of binary therapy, Chou-Talalay method, CompuSyn software; format: cell-based, human; settings: PS 50 nM + methotrexate 500 μM (footnote 500 nM)
TNBC cells [2] = assay: as above; format: cell-based, human
Experimental: (§2) The calculated CI values are based on 50 nM concentration for the PSs, 50 nM paclitaxel, 500 nM doxorubicin, 25 μM cisplatin, 25 μM fluorouracil, and 500 nM methotrexate.
as §1
The combination index (CI) for the binary treatment of TNBC cells with a PS and a chemotherapeutic drug was calculated based on the Chou-Talalay method using CompuSyn software. […] The unified dynamics algorithm uses a minimum of dose-data points to fit the general MAL theory.
as §2

Compound: C=Cc1c(C)c2cc3nc(c(CC(=O)OC)c4[nH]c(cc5nc(cc1[nH]2)C(C)=C5CC)c(C)c4C(=O)NCCCCCCNC(=O)CCNC(=O)[C@H](O)C(C)(C)CO)[C@@H](CCC(=O)OC)[C@@H]3C [CPA, chlorin pantothenic acid conjugate]
- cell viability, co-treatment with methotrexate upon light (TNBC BT-549 cells; PS 50 nM + methotrexate 500 nM, light, 1440 min): 66%
- cell survival, PS alone (TNBC BT-549 cells; PS 50 nM, light, 1440 min): 99%
- cell inhibition (%), combination with cisplatin (TNBC BT-549 cells; PS 100 nM + cisplatin 25 μM, 24 h, light 0.96 J cm−2): 87%
- effect of added cisplatin compared to cisplatin-treated cell viability (TNBC BT-549 cells; PS 100 nM + cisplatin 25 μM, light): reduced cell survival
- cell survival, co-treatment with cisplatin upon light (TNBC BT-549 cells; PS 100 nM + cisplatin 25 μM, light, 1440 min): 13%
- cell survival, co-treatment with doxorubicin in the dark (TNBC BT-549 cells; PS 100 nM + doxorubicin 500 nM, 24 h, dark): 75%
- cell inhibition (%), combination with doxorubicin (TNBC BT-549 cells; PS 100 nM + doxorubicin 500 nM, 24 h, light 0.96 J cm−2): 73%
- cell survival, co-treatment with doxorubicin upon light (TNBC BT-549 cells; PS 100 nM + doxorubicin 500 nM, light, 1440 min, 0.1 µM): 37% and 27%
- best combination partner (TNBC BT-549 cells; PS 100 nM + drug, light): cisplatin is the best, next doxorubicin, then paclitaxel
- cell inhibition (%), combination with fluorouracil (TNBC BT-549 cells; PS 100 nM + fluorouracil 25 μM, 24 h, light 0.96 J cm−2): 43%
- effect of added fluorouracil compared to fluorouracil-treated cell viability (TNBC BT-549 cells; PS 100 nM + fluorouracil 25 μM, light): reduced cell survival
- cell survival, co-treatment with fluorouracil upon light (TNBC BT-549 cells; PS 100 nM + fluorouracil 25 μM, light, 1440 min): 57%
- cell inhibition (%), combination with methotrexate (TNBC BT-549 cells; PS 100 nM + methotrexate 500 nM, 24 h, light 0.96 J cm−2): 33%
- cell inhibition (%), combination with paclitaxel (TNBC BT-549 cells; PS 100 nM + paclitaxel 50 nM, 24 h, light 0.96 J cm−2): 63%
- cell survival, co-treatment with paclitaxel upon light (TNBC BT-549 cells; PS 100 nM + paclitaxel 50 nM, light, 1440 min): 37%
- chemophotodynamic potency against TNBC cells, summary (TNBC BT-549 cells; PS 100 nM alone or in combination, light): better activity against TNBC cells than the starting compound MePheo
- cell survival, PS alone (TNBC BT-549 cells; PS 100 nM, light 0.96 J/cm^2, 1440 min, 0.1 µM): 75.3% and 75%
- cytotoxicity in the absence of light, PS alone (TNBC BT-549 cells; PS 500 nM, dark): No cytotoxicity
- combination therapy vs monotherapy (cisplatin) (TNBC BT-549 cells; PS + cisplatin, light): better photodynamic effect when co-treated with cisplatin than PS-treatment alone
- combination therapy vs monotherapy (doxorubicin) (TNBC BT-549 cells; PS + doxorubicin, light): better photodynamic effect when co-treated with doxorubicin than PS-treatment alone
- combination therapy vs monotherapy (fluorouracil) (TNBC BT-549 cells; PS + fluorouracil, light): better photodynamic effect when co-treated with fluorouracil than PS-treatment alone
- combination therapy vs monotherapy (methotrexate) (TNBC BT-549 cells; PS + methotrexate, light): best compared to monotherapy alone and with the other PSs used
- cell viability reduction (difference) vs PS alone (TNBC BT-549 cells; PS at lower concentration (CPA: 50 nM) + methotrexate 500 nM, light): 33%
- cell morphology, PS co-treated with paclitaxel (human TNBC BT-549 cells; PS 50 nM + paclitaxel 50 nM, light (FIG. 18M-O)): shrunk cells and chromatin fragmentation are evident
- cell morphology, PS-treated then light (human TNBC BT-549 cells; PS 50 nM, 24 h, light (FIG. 18F-H)): reduced cellular volume and nuclear density
- preferred mode of cell death (human TNBC BT-549 cells; PS co-treated with paclitaxel or cisplatin): apoptosis
- combination index (CI) with methotrexate (TNBC cells [1]): 0.50
- synergism vs additive vs antagonism effect with methotrexate (TNBC cells [1]): (S) (S (0.3-0.7), synergism)
- combination index (CI) with cisplatin (TNBC cells [2]; PS 50 nM + cisplatin 25 μM): 1.30
- synergism vs additive vs antagonism effect with cisplatin (TNBC cells [2]; PS 50 nM + cisplatin 25 μM): (MA) (MA (1.20-1.45), moderate antagonism)
- combination index (CI) with doxorubicin (TNBC cells [2]; PS 50 nM + doxorubicin 500 nM): 1.52
- synergism vs additive vs antagonism effect with doxorubicin (TNBC cells [2]; PS 50 nM + doxorubicin 500 nM): (A) (A (1.45-3.3), antagonism)
- ranking of combination partners based on CI, decreasing order (TNBC cells [2]; PS 50 nM + drug): paclitaxel>fluorouracil>methotrexate
- combination index (CI) with fluorouracil (TNBC cells [2]; PS 50 nM + fluorouracil 25 μM): 0.45
- synergism vs additive vs antagonism effect with fluorouracil (TNBC cells [2]; PS 50 nM + fluorouracil 25 μM): (S) (S (0.3-0.7), synergism)
- combination index (CI) with paclitaxel (TNBC cells [2]; PS 50 nM + paclitaxel 50 nM): 0.41
- synergism vs additive vs antagonism effect with paclitaxel (TNBC cells [2]; PS 50 nM + paclitaxel 50 nM): (S) (S (0.3-0.7), synergism)

Source: patent US20260306633A1, “A COMBINATION THERAPY FOR CANCER TREATMENT” (Purdue Research Foundation, priority 2023, published 2026)
